Measured values reported in ChEMBL document CHEMBL1201862, “PubChem BioAssay data set” (2004).
Calls of active or inactive are those of the source.

Columns and labels:
H4 = experiment: Luminescence Cell-Based Dose Response HTS to Identify Activators of 5'UTR Stem-Loop Driven Prion Protein mRNA Translation in H4 Neuroglioblastoma Cells. [Related pubchem assays: 1829 (Project Summary), 1814 (Primary HTS)]; type: functional; details: Homo sapiens
[1] = target: Epstein-Barr nuclear antigen 1 (Epstein-Barr virus (strain B95-8) (HHV-4) (Human herpesvirus 4), UniProt P03211); experiment: EBNA-1 inhibitors, dose response, biochemical, fluorescence polarization, 1536-well (AID 2381); design: species or system human gammaherpesvirus 4;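 also: fluorescence polarization of a Cy5 DNA probe bound by EBNA-1 protein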
Sequence of Epstein-Barr nuclear antigen 1 (P03211 whole entry): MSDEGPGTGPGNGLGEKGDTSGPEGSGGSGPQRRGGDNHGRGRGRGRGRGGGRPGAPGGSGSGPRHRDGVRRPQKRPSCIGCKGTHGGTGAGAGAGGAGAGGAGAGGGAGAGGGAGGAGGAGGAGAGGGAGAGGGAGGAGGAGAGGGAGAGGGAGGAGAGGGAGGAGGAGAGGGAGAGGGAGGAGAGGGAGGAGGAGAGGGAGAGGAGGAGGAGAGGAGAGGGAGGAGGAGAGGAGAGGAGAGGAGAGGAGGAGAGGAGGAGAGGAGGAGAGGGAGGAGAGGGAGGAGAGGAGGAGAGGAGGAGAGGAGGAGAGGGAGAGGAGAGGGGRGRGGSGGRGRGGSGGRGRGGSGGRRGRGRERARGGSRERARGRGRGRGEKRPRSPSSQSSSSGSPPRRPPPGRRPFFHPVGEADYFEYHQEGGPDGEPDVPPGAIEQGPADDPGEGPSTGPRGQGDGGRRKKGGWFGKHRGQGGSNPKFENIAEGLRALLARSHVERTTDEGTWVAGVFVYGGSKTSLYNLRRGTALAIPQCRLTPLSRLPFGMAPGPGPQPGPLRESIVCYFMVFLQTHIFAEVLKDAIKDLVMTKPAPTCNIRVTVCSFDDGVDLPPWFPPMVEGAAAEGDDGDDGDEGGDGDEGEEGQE

[2] = Luminescence Cell-Based Dose Confirmation to Identify Activators of 5'UTR Stem-Loop Driven Alpha-Synuclein mRNA Translation in H4 Neuroglioblastoma Cells. [Related pubchem assays: 1829 (Project Summary), 1814 (Primary HTS)]; type: functional
[3] = target: Lytic switch protein BZLF1 (Epstein-Barr virus (strain B95-8) (HHV-4) (Human herpesvirus 4), UniProt P03206); experiment: EBV ZTA inhibitors, dose response, counter-screen for EBNA-1 inhibitor project, biochemical, fluorescence polarization, Epstein-Barr virus, 1536-well (AID 2377); design: species or system human gammaherpesvirus 4;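 also: fluorescence polarization of Cy5-labelled ZRE DNA probe bound by purified Zta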
Sequence of Lytic switch protein BZLF1 (P03206 whole entry): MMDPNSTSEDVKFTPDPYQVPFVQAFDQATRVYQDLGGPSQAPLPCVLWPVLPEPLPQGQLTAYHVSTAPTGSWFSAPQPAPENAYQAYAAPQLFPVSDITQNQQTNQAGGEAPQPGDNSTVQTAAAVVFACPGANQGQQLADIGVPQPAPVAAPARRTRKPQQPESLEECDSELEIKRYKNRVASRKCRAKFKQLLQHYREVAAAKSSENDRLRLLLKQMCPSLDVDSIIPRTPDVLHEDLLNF

[4] = Luminescence Cell-Based Dose Response to Identify Activators of Luciferase Translation or Activity in H4-C Neuroglioblastoma Cells. [Related pubchem assays: 1829 (Project Summary), 1814 (Primary HTS)]; type: functional
[5] = Luminescence Cell-Based Dose Response to Identify Activators of 5'UTR Stem-Loop Driven Prion Protein mRNA Translation in H4-C Neuroglioblastoma Cells. [Related pubchem assays: 1829 (Project Summary), 1814 (Primary HTS)]; type: functional
[6] = target: Neuropeptide Y receptor type 1 (Homo sapiens, UniProt P25929); type: functional;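 also: HEK293 cells with a CNG channel challenged with NPY then isoproterenol; potency as antagonist that reverses NPY suppression of cAMP signal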
Sequence of Neuropeptide Y receptor type 1 (P25929 whole entry): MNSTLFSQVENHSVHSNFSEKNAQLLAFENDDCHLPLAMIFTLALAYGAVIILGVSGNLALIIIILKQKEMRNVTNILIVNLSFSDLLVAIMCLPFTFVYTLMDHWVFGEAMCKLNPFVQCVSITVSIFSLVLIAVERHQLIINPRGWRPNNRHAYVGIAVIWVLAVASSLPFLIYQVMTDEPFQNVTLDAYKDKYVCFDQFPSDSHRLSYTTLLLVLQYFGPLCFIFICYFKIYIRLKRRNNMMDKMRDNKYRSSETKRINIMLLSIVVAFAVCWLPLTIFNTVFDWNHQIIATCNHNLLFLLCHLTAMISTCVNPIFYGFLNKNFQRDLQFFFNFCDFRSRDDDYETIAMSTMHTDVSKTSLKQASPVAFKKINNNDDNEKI

[7] = target: Neuropeptide Y receptor type 2 (Homo sapiens, UniProt P49146); type: functional, cell-based;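 also: HEK293 cells expressing the receptor and a CNG channel; stimulus was NPY near EC95 followed by isoproterenol to raise cAMP; antagonist potency measured as restoring cAMP signal that NPY suppresses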
Sequence of Neuropeptide Y receptor type 2 (P49146 whole entry): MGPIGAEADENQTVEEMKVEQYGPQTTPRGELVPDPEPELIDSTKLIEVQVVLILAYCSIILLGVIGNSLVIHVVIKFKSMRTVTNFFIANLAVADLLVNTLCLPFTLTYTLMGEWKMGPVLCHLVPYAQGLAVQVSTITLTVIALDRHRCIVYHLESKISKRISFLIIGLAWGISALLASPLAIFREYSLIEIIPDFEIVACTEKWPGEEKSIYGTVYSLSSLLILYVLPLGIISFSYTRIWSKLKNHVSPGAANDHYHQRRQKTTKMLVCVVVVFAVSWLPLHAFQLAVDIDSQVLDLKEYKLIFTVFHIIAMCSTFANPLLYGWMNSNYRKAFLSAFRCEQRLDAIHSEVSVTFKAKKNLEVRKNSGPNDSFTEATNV

[8] = cytotoxicity in MIN6 insulinoma cells, dose response, cytotoxicity control, cell-based, mouse insulinoma (AID 2122); type: functional;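 also: confirmatory high-throughput counterscreen run to flag cytotoxic compounds; mouse MIN-6 beta cells carrying an insulin promoter eGFP reporter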
INS1 = experiment: beta cell apoptosis inhibitors, cytokine rescue, dose response, luminescence, retest (AID 449756); type: functional, cell-based; details: Rattus norvegicus;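 also: cell death triggered by IL-1 beta plus TNF-alpha plus IFN-gamma mixture; protective hits raise ATP signal compared with cytokine alone wells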
[9] = Counterscreen for AddAB inhibitors: absorbance-based bacterial cell-based high throughput dose response assay for inhibitors of bacterial viability. [Related pubchem assays (depositor defined):AID435030, AID449728, AID449731, AID488942, AID488955, AID488956]; type: functional
Exodeoxyribonuclease V = target: T1, Exodeoxyribonuclease V (Escherichia coli (strain K12), UniProt P04993+P07648+P08394); experiment: E. coli RecBCD inhibitors, dose response, counter-screen for AddAB inhibitor project, absorbance, V66 E. coli, mutant T4 phage (AID 492957); type: functional, cell-based, Escherichia coli str. K-12 substr. MG1655
T1 sequence (P04993 whole entry): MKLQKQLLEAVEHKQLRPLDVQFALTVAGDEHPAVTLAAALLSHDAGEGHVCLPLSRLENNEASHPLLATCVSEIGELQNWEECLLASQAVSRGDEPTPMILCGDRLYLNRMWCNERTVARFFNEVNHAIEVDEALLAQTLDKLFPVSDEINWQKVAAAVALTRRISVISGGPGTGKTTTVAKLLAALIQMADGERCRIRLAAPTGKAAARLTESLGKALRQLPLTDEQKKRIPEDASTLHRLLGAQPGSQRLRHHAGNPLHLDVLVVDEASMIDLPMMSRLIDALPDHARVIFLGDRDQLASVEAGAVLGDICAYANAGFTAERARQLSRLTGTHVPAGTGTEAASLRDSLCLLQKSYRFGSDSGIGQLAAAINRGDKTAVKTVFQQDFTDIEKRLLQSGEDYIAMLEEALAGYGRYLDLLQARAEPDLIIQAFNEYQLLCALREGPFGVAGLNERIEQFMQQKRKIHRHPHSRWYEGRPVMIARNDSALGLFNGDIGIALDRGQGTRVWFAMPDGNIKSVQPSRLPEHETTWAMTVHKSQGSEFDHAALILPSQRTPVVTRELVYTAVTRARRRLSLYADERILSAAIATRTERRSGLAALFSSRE
T1 sequence (P07648 whole entry): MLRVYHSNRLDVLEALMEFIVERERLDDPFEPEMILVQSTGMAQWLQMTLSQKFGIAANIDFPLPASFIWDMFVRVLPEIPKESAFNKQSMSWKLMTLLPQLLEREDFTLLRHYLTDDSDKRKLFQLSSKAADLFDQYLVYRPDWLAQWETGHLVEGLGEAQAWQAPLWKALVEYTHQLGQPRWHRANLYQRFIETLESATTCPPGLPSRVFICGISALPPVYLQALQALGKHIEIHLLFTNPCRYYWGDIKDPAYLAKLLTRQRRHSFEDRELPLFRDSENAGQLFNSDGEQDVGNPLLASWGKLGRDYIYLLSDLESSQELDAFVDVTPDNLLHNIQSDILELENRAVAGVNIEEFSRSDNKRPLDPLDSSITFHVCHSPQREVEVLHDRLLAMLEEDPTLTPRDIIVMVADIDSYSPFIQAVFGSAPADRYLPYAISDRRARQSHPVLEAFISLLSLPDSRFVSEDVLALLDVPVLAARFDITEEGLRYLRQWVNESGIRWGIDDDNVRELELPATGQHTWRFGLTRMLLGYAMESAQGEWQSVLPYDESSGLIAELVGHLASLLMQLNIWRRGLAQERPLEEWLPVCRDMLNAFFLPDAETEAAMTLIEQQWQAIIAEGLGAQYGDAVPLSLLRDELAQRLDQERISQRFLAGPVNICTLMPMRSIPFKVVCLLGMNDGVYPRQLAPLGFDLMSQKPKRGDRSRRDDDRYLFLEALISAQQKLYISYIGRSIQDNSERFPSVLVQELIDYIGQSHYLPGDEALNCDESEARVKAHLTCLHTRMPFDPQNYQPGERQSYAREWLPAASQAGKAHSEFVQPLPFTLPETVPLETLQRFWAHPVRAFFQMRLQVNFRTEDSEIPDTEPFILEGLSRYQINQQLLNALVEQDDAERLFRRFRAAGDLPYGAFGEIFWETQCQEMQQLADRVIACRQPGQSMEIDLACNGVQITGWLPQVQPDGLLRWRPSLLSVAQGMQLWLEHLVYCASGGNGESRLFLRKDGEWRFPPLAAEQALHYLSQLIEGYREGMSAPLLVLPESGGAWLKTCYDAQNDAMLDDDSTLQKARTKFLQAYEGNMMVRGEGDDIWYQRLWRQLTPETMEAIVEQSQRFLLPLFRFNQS
T1 sequence (P08394 whole entry): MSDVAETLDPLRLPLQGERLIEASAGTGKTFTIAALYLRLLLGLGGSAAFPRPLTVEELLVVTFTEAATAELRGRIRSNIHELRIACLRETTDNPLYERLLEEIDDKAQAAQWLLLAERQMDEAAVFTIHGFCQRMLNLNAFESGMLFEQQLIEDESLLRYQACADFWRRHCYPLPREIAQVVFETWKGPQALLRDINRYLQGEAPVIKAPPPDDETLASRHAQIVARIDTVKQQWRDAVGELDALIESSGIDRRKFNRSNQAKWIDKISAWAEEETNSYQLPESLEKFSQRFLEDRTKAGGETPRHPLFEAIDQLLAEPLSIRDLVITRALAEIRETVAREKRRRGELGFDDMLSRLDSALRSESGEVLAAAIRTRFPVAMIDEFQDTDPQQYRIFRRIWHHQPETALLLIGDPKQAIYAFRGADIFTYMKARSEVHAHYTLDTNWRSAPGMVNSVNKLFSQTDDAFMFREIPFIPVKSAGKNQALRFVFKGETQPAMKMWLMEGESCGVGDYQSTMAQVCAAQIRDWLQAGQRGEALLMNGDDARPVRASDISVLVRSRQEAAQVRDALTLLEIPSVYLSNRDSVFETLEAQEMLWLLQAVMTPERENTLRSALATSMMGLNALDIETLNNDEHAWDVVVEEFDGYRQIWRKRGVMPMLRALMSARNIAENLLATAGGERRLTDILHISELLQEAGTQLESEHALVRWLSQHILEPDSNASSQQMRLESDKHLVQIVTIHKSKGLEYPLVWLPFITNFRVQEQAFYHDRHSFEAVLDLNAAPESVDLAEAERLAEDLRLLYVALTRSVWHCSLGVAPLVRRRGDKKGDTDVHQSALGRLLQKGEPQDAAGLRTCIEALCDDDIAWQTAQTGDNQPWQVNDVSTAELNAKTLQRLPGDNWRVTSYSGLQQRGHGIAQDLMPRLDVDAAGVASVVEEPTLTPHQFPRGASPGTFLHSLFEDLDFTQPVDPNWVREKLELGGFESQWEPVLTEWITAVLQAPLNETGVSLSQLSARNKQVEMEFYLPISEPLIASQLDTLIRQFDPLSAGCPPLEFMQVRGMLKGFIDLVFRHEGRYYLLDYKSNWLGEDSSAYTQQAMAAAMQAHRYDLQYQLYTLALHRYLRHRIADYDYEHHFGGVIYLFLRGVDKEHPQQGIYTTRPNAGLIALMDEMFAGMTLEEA

Streptococcus = experiment: Group A Streptococcus viability loss, dose response, counter-screen for streptokinase expression inhibitor project, luminescence, BacTiterGlo (AID 1915); type: functional, organism-based;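 also: potency for reduction of bacterial viability or growth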
[10] = inhibitors of firefly luciferase expression or activity, dose response, H4 neuroglioma cells, luminescence (AID 1990); type: functional, cell-based
Vero = experiment: host cell cytotoxicity of antiviral hits, dose response, cytotoxicity control for West Nile virus antiviral project, secondary assay (AID 1650); type: functional; details: Chlorocebus sabaeus
[11] = Luminescence Cell-Based Dose Response HTS to Identify Inhibitors of 5'UTR Stem-Loop Driven Prion Protein mRNA Translation in H4 Neuroglioblastoma Cells. [Related pubchem assays: 1827 (Project Summary), 1813 (Primary HTS)]; type: functional
[12] = tested on: Streptococcus sp. 'group A'; experiment: growth inhibition of control SK(-) GAS strain, dose response, counter-screen for streptokinase expression inhibitor project, luminescence, kanamycin, BacTiterGlo, confirmation (AID 1900); type: functional, organism-based
[13] = inhibitors of SNCA 5'UTR-driven reporter translation, confirmation, H4 neuroglioma cells, luminescence (AID 1988); type: functional, cell-based
[14] = insulin promoter down-regulators in MIN6 cells, imaging, high-content screening, mouse beta cells (AID 1628); type: functional
[15] = target: Induced myeloid leukemia cell differentiation protein Mcl-1 (Homo sapiens, UniProt Q07820); type: functional
Sequence of Induced myeloid leukemia cell differentiation protein Mcl-1 (Q07820 whole entry): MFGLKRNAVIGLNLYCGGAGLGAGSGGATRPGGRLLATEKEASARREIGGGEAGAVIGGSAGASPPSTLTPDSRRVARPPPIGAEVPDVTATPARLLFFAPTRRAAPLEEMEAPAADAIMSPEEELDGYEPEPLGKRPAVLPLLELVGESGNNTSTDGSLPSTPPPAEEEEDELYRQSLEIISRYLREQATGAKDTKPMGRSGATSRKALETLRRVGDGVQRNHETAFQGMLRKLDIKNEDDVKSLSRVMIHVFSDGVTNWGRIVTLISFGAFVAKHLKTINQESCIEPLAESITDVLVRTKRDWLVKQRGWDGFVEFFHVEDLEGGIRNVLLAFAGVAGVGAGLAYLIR

Ephrin type-A receptor 4 = Ephrin type-A receptor 4 (Mus musculus, UniProt Q03137); experiment: inhibitors of EphA4 binding to KYL peptide, primary screen, biochemical, colorimetric, mouse EphA4 (AID 689); type: functional
Sequence of Ephrin type-A receptor 4 (Q03137 whole entry): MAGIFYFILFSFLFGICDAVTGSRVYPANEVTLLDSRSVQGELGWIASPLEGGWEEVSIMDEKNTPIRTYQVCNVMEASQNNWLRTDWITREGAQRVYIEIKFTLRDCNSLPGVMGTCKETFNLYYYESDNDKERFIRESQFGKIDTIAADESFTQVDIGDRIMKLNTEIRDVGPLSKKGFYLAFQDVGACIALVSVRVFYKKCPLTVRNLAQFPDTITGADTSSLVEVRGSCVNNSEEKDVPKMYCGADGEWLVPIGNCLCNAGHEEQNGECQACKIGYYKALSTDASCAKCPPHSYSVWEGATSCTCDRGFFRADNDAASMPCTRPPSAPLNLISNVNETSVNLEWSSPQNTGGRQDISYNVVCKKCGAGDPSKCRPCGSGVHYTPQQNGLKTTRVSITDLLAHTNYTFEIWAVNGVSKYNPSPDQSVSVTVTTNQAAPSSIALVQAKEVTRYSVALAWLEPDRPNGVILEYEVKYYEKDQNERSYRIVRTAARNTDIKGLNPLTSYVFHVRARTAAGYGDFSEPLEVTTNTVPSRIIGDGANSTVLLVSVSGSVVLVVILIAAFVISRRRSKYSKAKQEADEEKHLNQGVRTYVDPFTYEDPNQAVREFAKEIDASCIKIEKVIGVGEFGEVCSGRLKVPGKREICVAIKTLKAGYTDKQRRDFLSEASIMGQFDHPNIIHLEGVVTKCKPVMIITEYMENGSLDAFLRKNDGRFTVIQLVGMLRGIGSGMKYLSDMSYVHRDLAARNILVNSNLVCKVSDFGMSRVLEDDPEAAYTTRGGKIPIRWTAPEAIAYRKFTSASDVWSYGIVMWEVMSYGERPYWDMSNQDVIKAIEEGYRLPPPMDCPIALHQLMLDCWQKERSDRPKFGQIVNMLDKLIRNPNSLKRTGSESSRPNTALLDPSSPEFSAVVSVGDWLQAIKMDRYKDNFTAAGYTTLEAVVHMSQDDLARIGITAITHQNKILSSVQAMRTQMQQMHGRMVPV

In the case of `Cc1cc(C(=O)CSc2nnnn2-c2ccccc2)c(C)n1CC1CCCO1` (stereo unspecified), the EC50 (H4) is reported as < 100 nM (active), the IC50 [1] is reported as 5230 nM (active) and the EC50 [2] is reported as 338 nM (active). The IC50 [3] was > 111000 nM (not active), the EC50 [4] was 353 nM (active) and the EC50 [5] was 326 nM (active).
With `COc1ccc(-c2noc(COc3ccc(Cl)c(C)c3)n2)cc1` the IC50 [6] was 5140 nM (active) and the IC50 [7] was 4250 nM (active).
For `Cc1ccc(C(C)C)c(OCc2ccc(C(=O)N/N=C/c3ccc(O)cc3O)cc2)c1`, the IC50 [8] was 1040 nM (active), the AC50 (INS1) was 1240 nM (active) and the IC50 [9] was > 119000 nM (inactive). The IC50 (Exodeoxyribonuclease V) was > 119000 nM (inactive), the EC50 (Streptococcus) was 2150 nM (active) and the EC50 [10] was 3000 nM (active). For the same compound, the CC50 (Vero) was 6860 nM (active), the EC50 [11] was 8360 nM (active) and the EC50 [12] was 1300 nM (active). The EC50 [13] was 2170 nM (active), the IC50 [14] was 1030 nM (active) and the IC50 [15] was 4970 nM (active).
With `CC(C)C1Cc2c(C#N)c(N)sc(=S)c2CO1` (stereo unspecified) the IC50 (Ephrin type-A receptor 4) was 3310 nM (active).
